According to PubChem BioAssay AID248 (DTP/NCI, 2004):
Inconclusive results and toxic doses are left out. Rule as the data show it: active = T/C of 150% or more; inactive = T/C below 125%.

System: L1210 leukemia ip in BDF1 mice, survival T/C
Test: NCI In Vivo Anticancer Drug Screen. Data for tumor model L1210 Leukemia (intraperitoneal) in B6D2F1 (BDF1) mice
Settings: endpoint: mean survival time, higher = longer survival
How it was run: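 Tumor was transplanted into mice, which were then dosed with test compound or vehicle alone. Survival was recorded for each group, and the treated figure was expressed relative to the control figure.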

[1] = dose: 5.0 mg/kg/injection, schedule: Q01DX001 (ip), vehicle: saline
[2] = dose: 10.0 mg/kg/injection, schedule: Q01DX001 (ip), vehicle: saline
[3] = dose: 20.0 mg/kg/injection, schedule: Q01DX001 (ip), vehicle: saline
[4] = dose: 100.0 mg/kg/injection, schedule: Q04DX003 (ip), vehicle: saline with Tween-80
[5] = dose: 200.0 mg/kg/injection, schedule: Q04DX003 (ip), vehicle: saline with Tween-80
[6] = dose: 400.0 mg/kg/injection, schedule: Q04DX003 (ip), vehicle: saline with Tween-80
[7] = dose: 100.0 mg/kg/injection, schedule: Q01DX001 (ip), vehicle: saline
[8] = dose: 100.0 mg/kg/injection, schedule: Q01DX009 (ip), vehicle: Klucel (hydroxypropylcellulose) (HPC)
[9] = dose: 200.0 mg/kg/injection, schedule: Q01DX009 (ip), vehicle: Klucel (hydroxypropylcellulose) (HPC)
[10] = dose: 400.0 mg/kg/injection, schedule: Q01DX009 (ip), vehicle: Klucel (hydroxypropylcellulose) (HPC)

Measured: T/C

c1ccc(N2CN(c3ccccc3)CN(c3ccccc3)C2)cc1
inactive: dose: 100.0 mg/kg/injection, schedule: Q01DX001 (ip), vehicle: Klucel (hydroxypropylcellulose) (HPC) 97 % of control | dose: 100.0 mg/kg/injection, schedule: Q04DX002 (ip), vehicle: Klucel (hydroxypropylcellulose) (HPC) 101 % of control | dose: 200.0 mg/kg/injection, schedule: Q01DX001 (ip), vehicle: Klucel (hydroxypropylcellulose) (HPC) 92 % of control | dose: 200.0 mg/kg/injection, schedule: Q04DX002 (ip), vehicle: Klucel (hydroxypropylcellulose) (HPC) 101 % of control | dose: 400.0 mg/kg/injection, schedule: Q01DX001 (ip), vehicle: Klucel (hydroxypropylcellulose) (HPC) 92 % of control | dose: 400.0 mg/kg/injection, schedule: Q04DX002 (ip), vehicle: Klucel (hydroxypropylcellulose) (HPC) 97 % of control

COc1ccc(C[As+](Cc2ccccc2)(Cc2ccc(OC)cc2)Cc2ccc(OC)cc2)cc1
inactive: [1] 103 % of control | [2] 98 % of control | [3] 96 % of control

O=C(c1ccccc1)c1ccc(N2CCOCC2)cc1
inactive: dose: 100.0 mg/kg/injection, schedule: Q01DX001 (ip), vehicle: other 96 % of control | dose: 200.0 mg/kg/injection, schedule: Q01DX001 (ip), vehicle: other 98 % of control | dose: 400.0 mg/kg/injection, schedule: Q01DX001 (ip), vehicle: other 90 % of control

COc1c(C)ccc([N+](=O)[O-])c1OC
inactive: [4] 94 % of control | [5] 97 % of control | [6] 97 % of control

Cc1cccc(C(Cc2ccc(N3C(N)=NC(N)=NC3(C)C)cc2)C(=O)Nc2ccc(S(=O)(=O)F)cc2)c1 (stereo not drawn)
inactive: [7] 108 % of control | dose: 200.0 mg/kg/injection, schedule: Q01DX001 (ip), vehicle: saline 110 % of control | dose: 400.0 mg/kg/injection, schedule: Q01DX001 (ip), vehicle: saline 98 % of control

Cc1nc(C)c(C)s1
inactive: [8] 95 % of control | dose: 100.0 mg/kg/injection, schedule: Q04DX003 (ip), vehicle: Klucel (hydroxypropylcellulose) (HPC) 102 % of control | [9] 95 % of control | dose: 200.0 mg/kg/injection, schedule: Q04DX003 (ip), vehicle: Klucel (hydroxypropylcellulose) (HPC) 100 % of control | [10] 90 % of control | dose: 400.0 mg/kg/injection, schedule: Q04DX003 (ip), vehicle: Klucel (hydroxypropylcellulose) (HPC) 104 % of control

CCCCCCCC(=O)Nc1ccc(C)cc1C
inactive: [4] 95 % of control | [5] 98 % of control | [6] 94 % of control

CC1(C)N=C(N)N=C(N)N1c1cccc(OCc2cccc(NC(=O)CBr)c2)c1
inactive: [1] 106 % of control | [2] 103 % of control | [3] 103 % of control | dose: 40.0 mg/kg/injection, schedule: Q01DX001 (ip), vehicle: saline 97 % of control

CN1CC(CO)=CC2c3cccc4[nH]cc(c34)CC21 (stereo not drawn)
inactive: [7] 94 % of control

O=C(Nc1ccc2ccccc2c1)c1ccc(F)cc1
inactive: [8] 97 % of control | [9] 102 % of control | [10] 94 % of control

CC1OC(OC2C(CO)OC(O[C@H]3CC[C@@]4(C)C(=CC[C@H]5[C@@H]6C[C@@H]7O[C@@]8(CC[C@H](C)CN8)[C@@H](C)[C@@H]7[C@@]6(C)CC[C@@H]54)C3)C(OC3OC(C)C(O)C(O)C3O)C2O)C(O)C(O)C1O (stereo partly drawn)
inactive: dose: 10.0 mg/kg/injection, schedule: Q01DX009 (ip), vehicle: saline 115 % of control | dose: 20.0 mg/kg/injection, schedule: Q01DX009 (ip), vehicle: saline 103 % of control | dose: 40.0 mg/kg/injection, schedule: Q01DX009 (ip), vehicle: saline 100 % of control | dose: 80.0 mg/kg/injection, schedule: Q01DX009 (ip), vehicle: saline 103 % of control

Cc1ncc(C)c(=O)[nH]1
inactive: dose: 44.0 mg/kg/injection, schedule: Q01DX Z (ip), vehicle: saline 100 % of control | dose: 67.0 mg/kg/injection, schedule: Q01DX Z (ip), vehicle: saline 105 % of control | dose: 100.0 mg/kg/injection, schedule: Q01DX Z (ip), vehicle: saline 105 % of control | dose: 100.0 mg/kg/injection, schedule: Q04DX003 (ip), vehicle: saline 93 % of control | dose: 150.0 mg/kg/injection, schedule: Q01DX Z (ip), vehicle: saline 91 % of control | dose: 200.0 mg/kg/injection, schedule: Q04DX003 (ip), vehicle: saline 96 % of control

CCNC(=O)N1CCN(c2ccc(Cl)cc2)CC1
inactive: dose: 40.0 mg/kg/injection, schedule: Q04DX003 (ip), vehicle: saline 101 % of control | dose: 75.0 mg/kg/injection, schedule: Q01DX001 (ip), vehicle: saline 97 % of control | dose: 75.0 mg/kg/injection, schedule: Q04DX003 (ip), vehicle: saline 98 % of control | dose: 150.0 mg/kg/injection, schedule: Q01DX001 (ip), vehicle: saline 101 % of control | dose: 150.0 mg/kg/injection, schedule: Q04DX003 (ip), vehicle: saline 95 % of control

O=C(O)c1ccc2c(c1)Cc1ccccc1-2
inactive: dose: 75.0 mg/kg/injection, schedule: Q01DX001 (ip), vehicle: carboxymethylcellulose (CMC) 96 % of control | dose: 150.0 mg/kg/injection, schedule: Q01DX001 (ip), vehicle: carboxymethylcellulose (CMC) 95 % of control | dose: 300.0 mg/kg/injection, schedule: Q01DX001 (ip), vehicle: carboxymethylcellulose (CMC) 102 % of control
